Columns and labels:
amylin aggregates = amylin aggregates (Homo sapiens, UniProt P10997); format: binding
AD brain samples = details: cited from earlier work

amylin aggregates, sequence (P10997 34-70): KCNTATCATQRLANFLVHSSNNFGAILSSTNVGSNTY

For CNc1ccc(/C=C/c2ccc(OCCOCCOCCF)nc2)cc1 [AV-45, (E)-4-(2-(6-(2-(2-(2-fluoroethoxy)ethoxy)ethoxy)pyridin-3-yl)vinyl)-N-methylaniline], the Ki (amylin aggregates) is listed as 501 ± 40.8 nM and the Ki (AD brain samples) is listed as 6.7 nM.

— PMC4139942 (Scientific Reports, 2014)
